Measurements taken from publication PMC6481345, “A novel anti-melanoma SRC-family kinase inhibitor” (Oncotarget, 2019).
Entries after “also recorded” stand apart in the source; their conditions may differ.

Experiments:
[1] = tested on: pY416 SFK; test: Western blot, auto-phosphorylated Y416 of SFK; assay type: cell-based, human; details: melanoma cell lines; SAB298 0.5 µM, 5 hrs
Protocol: (§1) The effect of SAB298 on a panel of 36 recombinant kinases, was screed with the radioisotope filter binding assay employing 10 concentrations of the compound with 10 µM ATP (Reaction Biology Corporation, Malvern, PA). In addition, we tested the endogenous kinome response to SAB298 (0.05 µM, 0.5 µM and 5 µM) in lysates from two melanoma cell lines (YUSIV and YUSIK) employing the KiNativ® platform (ActivX Biosciences Inc., La Jolla, CA). KiNativ® is a robust, high performance mass spectrometry (LC-MS^2) assay that uses biotinylated probes to measure relevant changes in the affinity to the ATP-binding sites of 205 native kinases as a function of cellular context. We also validated SAB298 effect on the activity of SRC-family kinases by probing for phosphorylated Y416, the marker of activated SFKs, with anti-IEDNEpYTAR antibodies (also known as Y419, #2101, Cell Signaling Technology, Beverly, MA). In some cases the cells were incubated overnight with 20 µM proteasome inhibitor MG-132 (CAS 133407-82-6, Millipore Sigma, Burlington, MA) to rescue degradation.
We used standard techniques to identify changes in intracellular signaling in response to various treatments. […] Protein concentrations were measured with the BioRad kit (Bio-Rad Laboratories, Hercules, CA), SDS sample buffer was added, extracts were heated at 95°C, sonicated and centrifuged. […]

[2] = target: T1, ABL1 (Homo sapiens, UniProt P00519); test: Radioisotope filter activity assay, recombinant kinase; assay type: biochemical; details: 10 point dose response, 10 µM ATP
T1 construct: purchased Reaction Biology Corporation
T1 sequence (P00519 whole entry): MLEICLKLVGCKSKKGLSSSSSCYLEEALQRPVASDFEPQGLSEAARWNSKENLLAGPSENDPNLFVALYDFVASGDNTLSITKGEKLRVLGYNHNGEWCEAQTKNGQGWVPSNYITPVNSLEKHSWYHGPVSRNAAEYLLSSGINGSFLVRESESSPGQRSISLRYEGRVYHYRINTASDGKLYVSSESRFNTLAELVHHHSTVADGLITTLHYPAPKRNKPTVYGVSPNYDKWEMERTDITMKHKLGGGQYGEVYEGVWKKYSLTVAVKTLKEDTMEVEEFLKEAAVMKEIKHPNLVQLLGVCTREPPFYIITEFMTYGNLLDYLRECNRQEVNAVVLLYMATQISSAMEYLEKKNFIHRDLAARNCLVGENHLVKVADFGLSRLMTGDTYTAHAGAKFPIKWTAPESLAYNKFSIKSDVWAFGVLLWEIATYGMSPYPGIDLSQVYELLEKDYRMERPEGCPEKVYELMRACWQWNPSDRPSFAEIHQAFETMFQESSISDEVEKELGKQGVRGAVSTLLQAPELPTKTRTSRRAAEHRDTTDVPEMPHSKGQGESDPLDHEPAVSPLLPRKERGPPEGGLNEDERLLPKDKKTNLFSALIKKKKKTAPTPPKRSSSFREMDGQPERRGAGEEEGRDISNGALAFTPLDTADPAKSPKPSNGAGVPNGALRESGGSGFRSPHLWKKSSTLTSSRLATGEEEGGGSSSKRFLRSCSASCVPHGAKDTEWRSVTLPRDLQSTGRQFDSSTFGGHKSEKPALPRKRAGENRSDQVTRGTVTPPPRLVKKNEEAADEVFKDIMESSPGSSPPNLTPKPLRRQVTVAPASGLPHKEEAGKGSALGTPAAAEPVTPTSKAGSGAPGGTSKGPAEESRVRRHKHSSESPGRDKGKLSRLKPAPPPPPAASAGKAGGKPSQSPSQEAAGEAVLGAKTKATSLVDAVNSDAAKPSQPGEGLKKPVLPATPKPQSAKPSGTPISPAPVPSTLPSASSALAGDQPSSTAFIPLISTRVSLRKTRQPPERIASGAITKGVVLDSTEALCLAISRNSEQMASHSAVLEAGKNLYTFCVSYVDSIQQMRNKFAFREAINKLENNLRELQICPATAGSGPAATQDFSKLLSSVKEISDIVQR
Protocol: as §1
(§2) Supplemntary Table 3: Radioisotope filter activity assay Tests for SAB298 target protein
(§3) *These are results from 10 point dose response test employed with 10 µM ATP. […]
(§4) SRC TRCN0000195339 3ʹUTR […]
(§5) YES TRCN0000001611 CDS […]
(§6) FYN TRCN0000003099 CDS […]
(§7) LY N TRCN0000230901 CDS […]

[3] = target: T2, BRK (Homo sapiens, UniProt Q13882); test: as above; assay type: biochemical; details: 10 point dose response, 10 µM ATP
T2 construct: purchased Reaction Biology Corporation
T2 sequence (Q13882 whole entry): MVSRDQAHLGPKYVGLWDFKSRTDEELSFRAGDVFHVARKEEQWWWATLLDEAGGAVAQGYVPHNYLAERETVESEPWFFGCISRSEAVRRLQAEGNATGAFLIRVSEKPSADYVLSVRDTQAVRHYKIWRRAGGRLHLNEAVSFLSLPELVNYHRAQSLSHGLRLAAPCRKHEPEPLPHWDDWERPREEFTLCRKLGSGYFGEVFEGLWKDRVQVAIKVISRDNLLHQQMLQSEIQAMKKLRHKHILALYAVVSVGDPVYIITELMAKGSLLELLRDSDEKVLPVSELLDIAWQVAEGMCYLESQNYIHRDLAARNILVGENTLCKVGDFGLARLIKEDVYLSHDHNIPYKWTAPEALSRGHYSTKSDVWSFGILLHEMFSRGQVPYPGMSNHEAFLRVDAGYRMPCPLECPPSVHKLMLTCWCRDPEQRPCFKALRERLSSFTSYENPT
Protocol: as §1, §2, §3, §4, §5, §6, §7

[4] = target: T3, RAF1 (Homo sapiens, UniProt P04049); test: as above; assay type: biochemical; details: 10 point dose response, 10 µM ATP
T3 construct: purchased Reaction Biology Corporation
T3 sequence (P04049 whole entry): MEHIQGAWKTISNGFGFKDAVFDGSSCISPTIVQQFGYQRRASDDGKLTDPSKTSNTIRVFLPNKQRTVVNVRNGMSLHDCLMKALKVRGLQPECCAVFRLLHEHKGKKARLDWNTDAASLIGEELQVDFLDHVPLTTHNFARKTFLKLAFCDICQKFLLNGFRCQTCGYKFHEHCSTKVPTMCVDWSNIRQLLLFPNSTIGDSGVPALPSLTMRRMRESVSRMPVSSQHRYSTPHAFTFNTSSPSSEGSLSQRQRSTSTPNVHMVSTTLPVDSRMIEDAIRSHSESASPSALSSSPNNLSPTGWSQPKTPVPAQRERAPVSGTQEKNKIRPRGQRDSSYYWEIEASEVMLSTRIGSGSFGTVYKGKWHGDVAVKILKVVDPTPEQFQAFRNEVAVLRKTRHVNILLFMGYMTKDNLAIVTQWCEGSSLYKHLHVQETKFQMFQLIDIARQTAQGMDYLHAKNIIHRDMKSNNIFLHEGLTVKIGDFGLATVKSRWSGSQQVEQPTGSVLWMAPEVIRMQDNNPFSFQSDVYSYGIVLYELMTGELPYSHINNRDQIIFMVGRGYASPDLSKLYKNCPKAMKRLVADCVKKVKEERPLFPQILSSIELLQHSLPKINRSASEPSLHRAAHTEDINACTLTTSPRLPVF
Protocol: as §1, §2, §3, §4, §5, §6, §7

[5] = target: T4, BRAF (Homo sapiens, UniProt P15056); test: as above; assay type: biochemical; details: 10 point dose response, 10 µM ATP
T4 construct: purchased Reaction Biology Corporation
T4 sequence (P15056 whole entry): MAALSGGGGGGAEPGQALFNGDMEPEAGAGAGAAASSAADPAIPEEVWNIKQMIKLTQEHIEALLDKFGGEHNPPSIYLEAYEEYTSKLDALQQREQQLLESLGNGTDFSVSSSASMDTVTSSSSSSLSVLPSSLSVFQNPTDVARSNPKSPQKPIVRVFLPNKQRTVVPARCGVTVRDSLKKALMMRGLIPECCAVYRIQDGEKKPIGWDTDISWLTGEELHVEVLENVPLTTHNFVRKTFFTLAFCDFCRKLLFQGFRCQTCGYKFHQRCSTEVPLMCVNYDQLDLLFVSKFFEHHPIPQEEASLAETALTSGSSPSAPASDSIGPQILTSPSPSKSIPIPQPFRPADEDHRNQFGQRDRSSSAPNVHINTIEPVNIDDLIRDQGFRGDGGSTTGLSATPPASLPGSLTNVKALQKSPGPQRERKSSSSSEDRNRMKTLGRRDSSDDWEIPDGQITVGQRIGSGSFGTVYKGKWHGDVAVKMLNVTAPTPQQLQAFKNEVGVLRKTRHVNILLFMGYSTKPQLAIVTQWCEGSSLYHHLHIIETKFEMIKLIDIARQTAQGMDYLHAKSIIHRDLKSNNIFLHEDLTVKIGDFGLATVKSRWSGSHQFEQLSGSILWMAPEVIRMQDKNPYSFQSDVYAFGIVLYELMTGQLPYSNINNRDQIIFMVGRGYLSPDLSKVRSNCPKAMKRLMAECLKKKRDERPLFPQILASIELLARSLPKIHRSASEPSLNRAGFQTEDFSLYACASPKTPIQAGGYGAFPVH
Protocol: as §1, §2, §3, §4, §5, §6, §7

[6] = target: T5, IGF1R (Homo sapiens, UniProt P08069); test: as above; assay type: biochemical; details: 10 point dose response, 10 µM ATP
T5 construct: purchased Reaction Biology Corporation
T5 sequence (P08069 31-1367): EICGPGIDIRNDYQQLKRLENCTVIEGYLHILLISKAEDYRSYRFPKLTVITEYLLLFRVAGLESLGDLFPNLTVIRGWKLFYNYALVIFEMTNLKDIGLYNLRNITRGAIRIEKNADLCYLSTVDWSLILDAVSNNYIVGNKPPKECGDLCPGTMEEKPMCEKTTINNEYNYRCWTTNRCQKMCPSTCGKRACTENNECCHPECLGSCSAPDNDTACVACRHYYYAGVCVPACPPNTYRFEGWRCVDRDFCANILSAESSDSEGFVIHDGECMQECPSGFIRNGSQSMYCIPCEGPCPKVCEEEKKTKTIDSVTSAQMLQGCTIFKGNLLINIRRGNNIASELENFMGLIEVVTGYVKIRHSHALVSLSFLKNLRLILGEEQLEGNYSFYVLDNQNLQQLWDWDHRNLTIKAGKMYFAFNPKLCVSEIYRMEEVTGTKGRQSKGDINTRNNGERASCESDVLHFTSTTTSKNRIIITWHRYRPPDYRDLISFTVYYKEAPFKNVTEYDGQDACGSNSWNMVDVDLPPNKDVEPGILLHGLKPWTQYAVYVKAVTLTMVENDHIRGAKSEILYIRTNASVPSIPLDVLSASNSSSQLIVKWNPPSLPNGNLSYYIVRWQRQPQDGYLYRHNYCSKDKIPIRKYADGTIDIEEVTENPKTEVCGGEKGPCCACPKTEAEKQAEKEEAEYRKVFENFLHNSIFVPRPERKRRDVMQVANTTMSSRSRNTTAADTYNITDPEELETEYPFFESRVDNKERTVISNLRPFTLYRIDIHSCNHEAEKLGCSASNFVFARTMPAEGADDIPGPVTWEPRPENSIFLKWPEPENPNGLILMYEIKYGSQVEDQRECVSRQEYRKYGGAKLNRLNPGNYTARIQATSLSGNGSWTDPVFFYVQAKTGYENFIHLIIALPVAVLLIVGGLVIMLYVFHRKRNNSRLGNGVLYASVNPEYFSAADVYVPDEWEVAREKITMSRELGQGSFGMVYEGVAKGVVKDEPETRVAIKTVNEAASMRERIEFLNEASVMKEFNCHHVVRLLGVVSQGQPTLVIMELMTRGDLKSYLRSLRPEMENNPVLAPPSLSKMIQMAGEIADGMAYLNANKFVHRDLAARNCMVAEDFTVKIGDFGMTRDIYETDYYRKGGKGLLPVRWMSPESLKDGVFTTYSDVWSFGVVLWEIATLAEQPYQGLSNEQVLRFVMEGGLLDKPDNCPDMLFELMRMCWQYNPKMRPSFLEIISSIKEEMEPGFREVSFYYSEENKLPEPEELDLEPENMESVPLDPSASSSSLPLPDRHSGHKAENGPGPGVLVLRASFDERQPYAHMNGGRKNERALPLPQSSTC
Protocol: as §1, §2, §3, §4, §5, §6, §7

[7] = target: T6, BTK (Homo sapiens, UniProt Q06187); test: as above; assay type: biochemical; details: 10 point dose response, 10 µM ATP
T6 construct: purchased Reaction Biology Corporation
T6 sequence (Q06187 whole entry): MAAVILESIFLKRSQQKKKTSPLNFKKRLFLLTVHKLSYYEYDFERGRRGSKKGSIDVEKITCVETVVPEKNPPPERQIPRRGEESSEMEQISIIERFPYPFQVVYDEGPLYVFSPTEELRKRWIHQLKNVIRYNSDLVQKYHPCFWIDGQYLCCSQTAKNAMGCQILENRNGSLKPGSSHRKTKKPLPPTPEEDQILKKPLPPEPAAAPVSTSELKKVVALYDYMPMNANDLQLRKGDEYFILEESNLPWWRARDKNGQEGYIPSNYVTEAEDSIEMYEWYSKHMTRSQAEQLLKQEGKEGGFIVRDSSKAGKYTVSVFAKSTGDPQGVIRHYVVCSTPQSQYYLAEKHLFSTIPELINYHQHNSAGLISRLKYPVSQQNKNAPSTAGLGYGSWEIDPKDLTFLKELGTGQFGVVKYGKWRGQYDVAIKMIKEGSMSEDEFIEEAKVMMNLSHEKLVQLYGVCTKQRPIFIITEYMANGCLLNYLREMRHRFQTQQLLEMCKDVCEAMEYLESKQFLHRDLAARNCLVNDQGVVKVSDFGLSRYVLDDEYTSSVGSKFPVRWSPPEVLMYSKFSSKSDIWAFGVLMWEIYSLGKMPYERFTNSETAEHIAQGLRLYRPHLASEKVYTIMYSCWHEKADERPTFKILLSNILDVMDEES
Protocol: as §1, §2, §3, §4, §5, §6, §7

[8] = Clinical signs of toxicity in tumor bearing mice; assay type: in vivo; details: daily intraperitoneal SAB298
Protocol: All procedures involving animals were approved by the Institutional Animal Care and Use Committee of Yale University. YUSIK melanoma cells were grown to 80% confluency in 150 cm^2 flasks, detached by trypsinization, washed with PBS, and cell pellets were resuspended in 1:1 mixture of PBS and matrigel (BD Bioscience Cat #354234) to sustain cell viability. The cells (4 × 10^6/100 µl) were injected subcutaneously in the back flank of six weeks old female athymic Nude-Foxn1nu (nu/nu) mice (Charles River Laboratories, Wilmington, MA), and tumors were measuring daily with a caliper (length, width, and depth). When tumors reached palpable size (between 25–40 mm^3), the animals were randomized by tumor size and body weigh into two groups and were daily injected intraperitoneally with SAB298 (batch #AU0588-91, Sabila Biosciences LLC, 5 Overlook Road, New City, New York, 10956) or vehicle as controls (N = 6/each). […] The vehicle contained the same reagents but without SAB298.
The tumors size and body weight were measured daily and the mice were checked for clinical signs of toxicity, such as lethargy, neurological symptoms, diarrhea, discharges, morbidity, piloerection and weight loss (>20%).

[9] = tested on: phospho-PP2A Y307; test: Western blot, inactivated PP2A; assay type: cell-based, human; details: YUSIK and YUSIV melanoma cells
Protocol: We used standard techniques to identify changes in intracellular signaling in response to various treatments. Briefly, melanoma cells were incubated with test compounds, using DMSO as a control, collected by scraping on ice, and lysed in RIPA buffer supplemented with protease and phosphatase inhibitors (MA #78428, and #78425, respectively, Thermo Fisher Scientific, Waltham, MA). Protein concentrations were measured with the BioRad kit (Bio-Rad Laboratories, Hercules, CA), SDS sample buffer was added, extracts were heated at 95°C, sonicated and centrifuged. Cell extracts (20 µg/lane) were fractionated in 3%–8% or 4–12 % tris-acetate gel (NP0006, NuPAGE Life Technologies). […]

[10] = tested on: NCI-60 melanoma cell lines; test: NCI-60 human tumor cell line screen, melanomas (summary); assay type: cell-based; details: melanoma cell lines of NCI-60, read-out: IC50, range over cell lines
Protocol: We first tested the impact of SAB298 on NCI-60 human tumor cell lines that included eight melanomas (performed by the NCI Development Therapeutics Program).
SFK-inhibitors were tested on a panel of NCI-60 cell lines (Supplementary Table 1) and 30 melanoma cell lines and NBMEL, i.e., normal human melanocytes isolated from a newborn foreskin (Table 1 and Supplementary Table 2). The Yale melanoma cohort designated YU originated from tumors excised to improve patient quality of life and used with participants’ informed consent according to Health Insurance Portability and Accountability Act (HIPAA) regulations with Human Investigative Committee protocol.
Supplementary Table 1: Cellular activity of SAB298 in a Panel of NCI-60 cancer cell lines*
measured protein; and TI is LC50/GI50.
Supplementary Table 2: Description of Melanoma Cell lines. See Supplementary_Table_2

## Nc1ncnc2c1c(-c1ccc(Oc3ccccc3)cc1)nn2C[C@@H]1SSC[C@@H]1O [SAB298, (3S, 4S)-3-((4-amino-3-(4-phenoxyphenyl)-1H-pyrazolo[3,4-d]pyrimidin-1-yl)methyl)-1,2-dithiolan-4-ol]
[1]
  pY416 SFK level: consistently suppressed; also recorded: downregulated pSFK Y416
[2]
  IC50: 4.14 µM
[3]
  IC50: 0.0355 µM
[4]
  IC50: 2.8 µM
[5]
  IC50: > 10 µM
[6]
  IC50: > 10 µM
[7]
  IC50: 0.078 µM
[8]
  Clinical signs of toxicity (lethargy, neurological symptoms, diarrhea, discharges, morbidity, piloerection, weight loss >20%): None of them or any other abnormal indication were observed
[9]
  inactivated PP2A (phospho-PP2A Y307) level: increase in the levels of inactivated PP2A
[10]
  IC50: 0.021 to 0.55 µM
